Reference: US20250115598A1 (Anaxis Pharma Pty Ltd, priority 2021, published 2025)
pKd: −log10 of the molar value.

How the values were obtained:
human MLKL (full length) = human MLKL (full length) (Homo sapiens (Human), UniProt Q8NB16); assay: KINOMEscan binding assay, human MLKL (full length); settings: KINOMEscan, Table 21; read-out: Human MLKL (full-length) (KD)
Method in brief: (§1)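 In this assay, compounds displace DNA- or phage-tagged kinase from an immobilized ligand, and eluted kinase is quantified by qPCR.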

human RIPK1 = human RIPK1 (Homo sapiens (Human), UniProt Q13546); assay: KINOMEscan binding assay, human RIPK1; settings: Table 21
Method in brief: as §1

human RIPK3 = human RIPK3 (Homo sapiens (Human), UniProt Q9Y572); assay: KINOMEscan binding assay, human RIPK3; settings: Table 21
Method in brief: as §1

Sequence of human MLKL (full length) (Q8NB16 whole entry): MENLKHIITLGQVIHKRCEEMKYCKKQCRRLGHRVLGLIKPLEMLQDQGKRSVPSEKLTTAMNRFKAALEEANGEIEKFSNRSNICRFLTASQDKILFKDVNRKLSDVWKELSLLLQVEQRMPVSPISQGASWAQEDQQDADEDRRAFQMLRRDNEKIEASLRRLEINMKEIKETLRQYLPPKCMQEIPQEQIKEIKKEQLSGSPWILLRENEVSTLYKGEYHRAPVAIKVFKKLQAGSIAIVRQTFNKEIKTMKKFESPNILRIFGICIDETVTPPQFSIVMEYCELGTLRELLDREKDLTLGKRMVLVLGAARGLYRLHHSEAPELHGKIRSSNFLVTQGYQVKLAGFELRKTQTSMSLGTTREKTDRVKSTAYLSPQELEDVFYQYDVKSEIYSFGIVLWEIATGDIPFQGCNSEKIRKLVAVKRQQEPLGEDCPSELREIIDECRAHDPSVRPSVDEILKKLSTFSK
Sequence of human RIPK3 (Q9Y572 whole entry): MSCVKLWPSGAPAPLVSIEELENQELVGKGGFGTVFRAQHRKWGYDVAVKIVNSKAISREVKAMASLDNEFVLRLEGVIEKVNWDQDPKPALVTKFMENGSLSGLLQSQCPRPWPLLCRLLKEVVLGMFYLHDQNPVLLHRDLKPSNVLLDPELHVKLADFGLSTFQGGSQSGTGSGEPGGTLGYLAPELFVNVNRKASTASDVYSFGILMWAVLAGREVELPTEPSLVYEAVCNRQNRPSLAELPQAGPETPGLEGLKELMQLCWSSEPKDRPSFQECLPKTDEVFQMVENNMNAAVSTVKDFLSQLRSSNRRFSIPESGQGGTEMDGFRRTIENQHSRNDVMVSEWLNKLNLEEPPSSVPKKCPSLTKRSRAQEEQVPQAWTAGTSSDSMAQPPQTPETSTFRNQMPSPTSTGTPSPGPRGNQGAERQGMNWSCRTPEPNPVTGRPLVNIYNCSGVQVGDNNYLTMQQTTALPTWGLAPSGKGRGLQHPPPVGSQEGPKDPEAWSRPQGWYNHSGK
Sequence of human RIPK1 (Q13546 whole entry): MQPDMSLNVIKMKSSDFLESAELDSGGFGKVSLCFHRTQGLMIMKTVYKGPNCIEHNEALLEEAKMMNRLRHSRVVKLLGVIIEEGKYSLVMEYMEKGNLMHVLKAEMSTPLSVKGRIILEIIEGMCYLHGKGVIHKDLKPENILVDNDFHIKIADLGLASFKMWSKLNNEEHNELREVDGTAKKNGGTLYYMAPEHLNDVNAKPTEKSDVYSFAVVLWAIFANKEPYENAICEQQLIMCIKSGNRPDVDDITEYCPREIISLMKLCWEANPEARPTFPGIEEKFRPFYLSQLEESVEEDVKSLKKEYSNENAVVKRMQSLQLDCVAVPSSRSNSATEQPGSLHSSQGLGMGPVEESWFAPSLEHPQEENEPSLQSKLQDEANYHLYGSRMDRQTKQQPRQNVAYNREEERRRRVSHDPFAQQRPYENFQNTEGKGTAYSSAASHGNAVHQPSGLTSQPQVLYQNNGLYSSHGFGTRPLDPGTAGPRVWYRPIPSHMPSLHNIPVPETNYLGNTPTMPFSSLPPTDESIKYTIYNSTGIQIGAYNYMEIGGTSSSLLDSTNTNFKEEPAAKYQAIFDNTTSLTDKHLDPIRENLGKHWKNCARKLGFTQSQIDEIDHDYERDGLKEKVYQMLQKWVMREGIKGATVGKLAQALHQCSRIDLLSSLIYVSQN

| Compound | pKd (human MLKL (full length)) | pKd (human RIPK1) | pKd (human RIPK3) |
| --- | --- | --- | --- |
| C[C@H](Oc1cc(-c2nn(C)c3c(-c4cnn(C5CCN(C)C(C)(C)C5)c4)cnc(N)c23)ccc1NS(=O)(=O)C(F)F)c1ccc(Cl)cc1 (stereo partly drawn) [Compound 159, N-(4-(4-amino-1-methyl-7-(1-(1,2,2-trimethylpiperidin-4-yl)-1H-pyrazol-4-yl)-1H-pyrazolo[4,3-c]pyridin-3-yl)-2-((S)-1-(4-chloro-phenyl)ethoxy)phenyl)-1,1-difluoro-methanesulfonamide] | > 9.00 | < 5.00 | < 5.00 |
| CNCCn1cc(-c2cnc(N)c3c(-c4ccc(NS(=O)(=O)C(F)F)c(O[C@@H](C)c5ccc(F)cc5)c4)nn(C)c23)cn1 [Compound 82, (S)-N-(4-(4-amino-1-methyl-7-(1-(2-(methylamino)ethyl)-1H-pyrazol-4-yl)-1H-pyrazolo[4,3-c]pyridin-3-yl)-2-(1-(4-fluorophenyl)ethoxy)phenyl)-1,1-difluoromethanesulfonamide] | > 9.00 | < 5.00 | < 5.00 |
| Cn1nc(-c2ccc(NS(=O)(=O)C(F)F)c(OCc3nccs3)c2)c2c(N)ncc(-c3cnn(C4CCOCC4)c3)c21 [Compound 143, N-(4-(4-amino-1-methyl-7-(1-(tetrahydro-2H-pyran-4-yl)-1H-pyrazol-4-yl)-1H-pyrazolo[4,3-c]pyridin-3-yl)-2-(thiazol-2-yl-methoxy)phenyl)-1,1-difluoromethane-sulfonamide] | > 9.00 | < 5.00 | < 5.00 |
| Cn1nc(-c2ccc(NS(=O)(=O)C(F)F)c(OCc3ccc(Cl)c(F)c3)c2)c2c(N)ncc(-c3cnn(C4CCOCC4)c3)c21 [Compound 132, N-(4-(4-amino-1-methyl-7-(1-(tetrahydro-2H-pyran-4-yl)-1H-pyrazol-4-yl)-1H-pyrazolo[4,3-c]pyridin-3-yl)-2-((4-chloro-3-fluoro-benzyl)oxy)phenyl)-1,1-difluoromethane-sulfonamide] | > 9.00 | < 5.00 | < 5.00 |
| CC(C)Oc1cc(-c2nn(C)c3c(-c4cnn(C5CCOCC5)c4)cnc(N)c23)ccc1NS(=O)(=O)C(F)F [Compound 144, N-(4-(4-amino-1-methyl-7-(1-(tetrahydro-2H-pyran-4-yl)-1H-pyrazol-4-yl)-1H-pyrazolo[4,3-c]pyridin-3-yl)-2-isopropoxy-phenyl)-1,1-difluoromethane-sulfonamide] | > 9.00 | < 5.00 | < 5.00 |
| C[C@H](Oc1cc(-c2nn(C)c3c(-c4cnn(C5CN(C)C5)c4)cnc(N)c23)ccc1NS(=O)(=O)C(F)F)c1ccc(F)cc1 [Compound 92, (S)-N-(4-(4-amino-1-methyl-7-(1-(1-methylazetidin-3-yl)-1H-pyrazol-4-yl)-1H-pyrazolo[4,3-c]pyridin-3-yl)-2-(1-(4-fluorophenyl)ethoxy)phenyl)-1,1-difluoromethanesulfonamide] | > 9.00 | < 5.00 | < 5.00 |
| C[C@H](Oc1cc(-c2ccnc3[nH]nc(N)c23)ccc1NS(=O)(=O)C(F)F)c1ccc(F)cc1 [Compound 72, N-(4-(3-Amino-1H-pyrazolo[3,4-b]pyridin-4-yl)-2-((1 S)-1-(4-fluorophenyl)ethoxy)phenyl)-1,1-difluoromethanesulfonamide] | > 9.00 | < 5.00 | < 5.00 |
| C[C@H](Oc1cc(-c2nn(C)c3c(-c4cnn(C(F)F)c4)cnc(N)c23)ccc1NS(=O)(=O)C(F)F)c1ccc(F)cc1 [Compound 123, (S)-N-(4-(4-amino-7-(1-(difluoromethyl)-1H-pyrazol-4-yl)-1-methyl-1H-pyrazolo[4,3-c]pyridin-3-yl)-2-(1-(4-fluorophenyl)ethoxy)phenyl)-1,1-difluoromethanesulfonamide] | > 9.00 | < 5.00 | < 5.00 |
| C[C@H](Oc1cc(-c2nn(C)c3c(-c4cnn(C5CN(CC(F)(F)F)C5)c4)cnc(N)c23)ccc1NS(=O)(=O)C(F)F)c1ccc(F)cc1 [Compound 77, (S)-N-(4-(4-amino-1-methyl-7-(1-(1-(2,2,2-trifluoroethyl)azetidin-3-yl)-1H-pyrazol-4-yl)-1H-pyrazolo[4,3-c]pyridin-3-yl)-2-(1-(4-fluorophenyl)ethoxy)phenyl)-1,1-difluoromethanesulfonamide] | > 9.00 | < 5.00 | < 5.00 |
| C[C@H](Oc1cc(-c2nn(C)c3c(-c4cnn(C5CC(C)(C)N(C)C(C)(C)C5)c4)cnc(N)c23)ccc1NS(=O)(=O)C(F)F)c1ccc(F)cc1 [Compound 162, (S)-N-(4-(4-amino-1-methyl-7-(1-(1,2,2,6,6-pentamethylpiperidin-4-yl)-1H-pyrazol-4-yl)-1H-pyrazolo[4,3-c]pyridin-3-yl)-2-(1-(4-fluorophenyl)ethoxy)phenyl)-1,1-difluoromethanesulfonamide] | > 9.00 | < 5.00 | < 5.00 |
| Cn1nc(-c2ccc(NS(=O)(=O)C(F)F)c(OCc3cccc(Cl)c3)c2)c2c(N)ncc(-c3cnn(C4CCOCC4)c3)c21 [Compound 130, N-(4-(4-amino-1-methyl-7-(1-(tetrahydro-2H-pyran-4-yl)-1H-pyrazol-4-yl)-1H-pyrazolo[4,3-c]pyridin-3-yl)-2-((3-chlorobenzyl)oxy)phenyl)-1,1-difluoromethane-sulfonamide] | > 9.00 | < 5.00 | < 5.00 |
| C[C@H](Oc1cc(-c2nn(C)c3c(-c4cnn(C5COC5)c4)cnc(N)c23)ccc1NS(=O)(=O)C(F)F)c1ccc(F)cc1 [Compound 38, (S)-N-(4-(4-amino-1-methyl-7-(1-(oxetan-3-yl)-1H-pyrazol-4-yl)-1H-pyrazolo[4,3-c]pyridin-3-yl)-2-(1-(4-fluorophenyl)ethoxy)phenyl)-1,1-difluoromethanesulfonamide] | > 9.00 | < 5.00 | < 5.00 |
| C[C@H](Oc1cc(-c2nn(C)c3c(C4=CCN(C)CC4)cnc(N)c23)ccc1NS(=O)(=O)C(F)F)c1ccc(F)cc1 [Compound 21, (S)-N-(4-(4-amino-1-methyl-7-(1-methyl-1,2,3,6-tetrahydropyridin-4-yl)-1H-pyrazolo[4,3-c]pyridin-3-yl)-2-(1-(4-fluorophenyl)ethoxy)phenyl)-1,1-difluoromethanesulfonamide] | > 9.00 | < 5.00 | < 5.00 |
| C[C@H](Oc1cc(-c2nn(C)c3c(-c4ccncc4)cnc(N)c23)ccc1NS(=O)(=O)C(F)F)c1ccc(F)cc1 [Compound 18, (S)-N-(4-(4-amino-1-methyl-7-(pyridin-4-yl)-1H-pyrazolo[4,3-c]pyridin-3-yl)-2-(1-(4-fluorophenyl)ethoxy)phenyl)-1,1-difluoromethanesulfonamide] | > 9.00 | < 5.00 | < 5.00 |
| Cn1nc(-c2ccc(NS(=O)(=O)C(F)F)cc2OCc2cccc(F)c2)c2c(N)ncc(-c3cnn(C4CCOCC4)c3)c21 [Compound 135, N-(4-(4-amino-1-methyl-7-(1-(tetrahydro-2H-pyran-4-yl)-1H-pyrazol-4-yl)-1H-pyrazolo[4,3-c]pyridin-3-yl)-3-((3-fluorobenzyl)oxy)phenyl)-1,1-difluoro-methanesulfonamide] | > 9.00 | < 5.00 | < 5.00 |
| [2H]C([2H])([2H])N1CCC(n2cc(-c3cnc(N)c4c(-c5ccc(NS(=O)(=O)C(F)F)c(O[C@@H](C)c6ccc(F)cc6)c5)nn(C)c34)cn2)CC1 [Compound 103, (S)-N-(4-(4-amino-1-methyl-7-(1-(1-(methyl-d3)piperidin-4-yl)-1H-pyrazol-4-yl)-1H-pyrazolo[4,3-c]pyridin-3-yl)-2-(1-(4-fluorophenyl)ethoxy)phenyl)-1,1-difluoromethanesulfonamide] | > 9.00 | < 5.00 | < 5.00 |
| C[C@H](Oc1cc(-c2cnn3c(-c4cnn(C5CCOCC5)c4)cnc(N)c23)ccc1NS(=O)(=O)C(F)F)c1ccc(F)cc1 [Compound 36, (S)-N-(4-(4-amino-7-(1-(tetrahydro-2H-pyran-4-yl)-1H-pyrazol-4-yl)pyrazolo[1,5-a]pyrazin-3-yl)-2-(1-(4-fluorophenyl)ethoxy)phenyl)-1,1-difluoromethane-sulfonamide] | > 9.00 | < 5.00 | < 5.00 |
| CC(C)n1cc(-c2cnc(N)c3c(-c4ccc(NS(=O)(=O)C(F)F)c(O[C@@H](C)c5ccc(F)cc5)c4)nn(C)c23)cn1 [Compound 31, (S)-N-(4-(4-amino-7-(1-isopropyl-1H-pyrazol-4-yl)-1-methyl-1H-pyrazolo[4,3-c]pyridin-3-yl)-2-(1-(4-fluorophenyl)ethoxy)phenyl)-1,1-difluoromethanesulfonamide] | > 9.00 | < 5.00 | < 5.00 |
| COCCn1cc(-c2cnc(N)c3c(-c4ccc(NS(=O)(=O)C(F)F)c(O[C@@H](C)c5ccc(F)cc5)c4)nn(C)c23)cn1 [Compound 29, (S)-N-(4-(4-amino-7-(1-(2-methoxyethyl)-1H-pyrazol-4-yl)-1-methyl-1H-pyrazolo[4,3-c]pyridin-3-yl)-2-(1-(4-fluorophenyl)ethoxy)phenyl)-1,1-difluoromethanesulfonamide] | > 9.00 | < 5.00 | < 5.00 |
| C[C@H](Oc1cc(-c2nn(C)c3c(C#CC4CCOCC4)cnc(N)c23)ccc1NS(=O)(=O)C(F)F)c1ccc(F)cc1 [Compound 58, (S)-N-(4-(4-amino-1-methyl-7-((tetrahydro-2H-pyran-4-yl)ethynyl)-1H-pyrazolo[4,3-c]pyridin-3-yl)-2-(1-(4-fluorophenyl)ethoxy)phenyl)-1,1-difluoromethane-sulfonamide] | > 9.00 | < 5.00 | < 5.00 |
